The record followed here is patent US11071721B2, “Bicyclic amide compounds and methods of use thereof” (Genentech, Inc., priority 2016, dated 2021).

human RIP1 kinase domain (2-375), sequence (Q13546 2-375): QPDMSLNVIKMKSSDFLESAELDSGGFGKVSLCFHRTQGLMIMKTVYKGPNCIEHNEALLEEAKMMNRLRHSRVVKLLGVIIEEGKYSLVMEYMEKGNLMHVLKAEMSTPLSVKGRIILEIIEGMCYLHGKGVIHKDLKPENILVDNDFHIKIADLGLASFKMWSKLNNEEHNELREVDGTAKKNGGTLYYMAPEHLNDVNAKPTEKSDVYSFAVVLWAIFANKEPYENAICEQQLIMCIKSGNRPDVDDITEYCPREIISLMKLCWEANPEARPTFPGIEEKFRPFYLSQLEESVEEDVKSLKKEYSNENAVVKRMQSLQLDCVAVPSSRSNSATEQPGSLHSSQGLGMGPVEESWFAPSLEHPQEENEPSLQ

The assay concerns the target human RIP1 kinase domain (2-375) (Homo sapiens (Human), UniProt Q13546). The assay is described as follows: RIP1 kinase inhibition assay (Transcreener ADP biochemical enzyme assay). The following applies: Ki app (Morrison tight-binding fit); 50 nM enzyme, 50 uM ATP, 2 hours incubation, fluorescence polarization. A digest of the protocol:
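Baculovirus-expressed human RIP1 kinase domain (2-375), 50 nM, incubated 2 h with compound in pH 7.5 Hepes with 30 mM MgCl2, 1 mM DTT, 50 uM ATP, 0.5% DMSO. ADP detected by Transcreener fluorescence polarization (antibody/AlexaFluor 633 tracer displacement). Ki^app from Morrison tight-binding fit of fractional activity.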
(Polarisation of emitted light reports the rotation of a fluorescent probe.)
Consider `CN(CC(F)F)C(=O)c1nc2n(n1)[C@H](c1ccccc1)C[C@@H]2F` (racemic) [Example 91, rac-(5S,7S)-N-(2,2-difluoroethyl)-7-fluoro-N-methyl-5-phenyl-6,7-dihydro-5H-pyrrolo[1,2-b] [1,2,4]triazole-2-carboxamide], for which the Ki came to 42 nM.

`CN(CC(F)(F)F)C(=O)c1nc2n(n1)[C@H](c1ccccc1)C[C@@H]2F` (racemic) [Example 92, rac-(5S,7S)-7-fluoro-N-methyl-5-phenyl-N-(2,2,2-trifluoroethyl)-6,7-dihydro-5H-pyrrolo [1,2-b][1,2,4]triazole-2-carboxamide] came in with a Ki of 100 nM.

Take `O=C(c1nc2n(n1)[C@H](c1ccccc1)C[C@@H]2F)N1CCC(Cc2ccccc2)C1` (mixture of isomers) [Example 93, (3-benzylpyrrolidin-1-yl)-[rac-(5S,7S)-7-fIuoro-5-phenyl-6,7-dihydro-5H-pyrrolo[1,2-b][1,2,4]triazol-2-yl]methanone]: the Ki worked out at 30 nM.

Compound `O=C(c1nc2n(n1)[C@H](c1ccccc1)C[C@@H]2F)N1CCCc2ccccc2C1` (racemic) [Example 94, [rac-(5S,7S)-7-fluoro-5-phenyl-6,7-dihydro-5H-pyrrolo[1,2-b][1,2,4]triazol-2-yl]-(1,3,4,5-tetrahydro-2-benzazepin-2-yl)methanone] gave a Ki of 160 nM.

On to `O=C(c1nc2n(n1)[C@H](c1ccccc1)C[C@@H]2F)N1CCc2cccc(F)c2C1` (racemic) [Example 95, (8-fluoro-3,4-dihydro-1H-isoquinolin-2-yl)-[rac-(5S,7S)-7-fluoro-5-phenyl-6,7-dihydro-5H-pyrrolo[1,2-b][1,2,4]triazol-2-yl]methanone], for which the Ki came to 18 nM.

`CC1c2c(F)cccc2CCN1C(=O)c1nc2n(n1)[C@H](c1ccccc1)C[C@@H]2F` (mixture of isomers) [Example 96, (8-fluoro-1-methyl-3,4-dihydro-1H-isoquinolin-2-yl)-[rac-(5S,7S)-7-fluoro-5-phenyl-6,7-dihydro-5H-pyrrolo[1,2-b][1,2,4]triazol-2-yl]methanone]: the Ki is 57 nM.

In turn, `CC1c2ccccc2CCN1C(=O)c1nc2n(n1)[C@H](c1ccccc1)C[C@@H]2F` (mixture of isomers) [Example 97, (1-methyl-3,4-dihydro-1H-isoquinolin-2-yl)-[rac-(5S,7S)-7-fluoro-5-phenyl-6,7-dihydro-5H-pyrrolo[1,2-b][1,2,4]triazol-2-yl]methanone] yielded a Ki of 58 nM.

Turning to `O=C(c1nc2n(n1)[C@@H](c1ccccc1)C[C@H]2F)N1CC2C(C1)C2(F)F` (mixture of isomers) [Example 100, (6,6-difluoro-3-azabicyclo[3.1.0]hexan-3-yl)-[rac-(5R,7R)-7-fluoro-5-phenyl-6,7-dihydro-5H-pyrrolo[1,2-b][1,2,4]triazol-2-yl]methanone], the Ki was found to be 270 nM.

`O=C(c1nc2n(n1)[C@@H](c1ccccc1)C[C@H]2F)N1CC2CC2C1` (mixture of isomers) [Example 101, 3-azabicyclo[3.1.0]hexan-3-yl-[rac-(5R, 7R)-7-fluoro-5-phenyl-6,7-dihydro-5H-pyrrolo[1,2-b][1,2,4]triazol-2-yl] methanone] returned a Ki of 82 nM.

`O=C(c1cc2n(n1)C(c1ccccc1)CC2)N1CC(F)(F)C1` (racemic) [Example 102, (3,3-difluoroazetidin-1-yl)-(6-phenyl-5,6-dihydro-4H-pyrrolo[1,2-b]pyrazol-2-yl)methanone] had a Ki of 240 nM.

As to `O=C(c1nc2n(n1)[C@@H](c1ccccc1)C[C@H]2F)N1CCC1` (racemic) [Example 104, azetidin-1-yl-[rac-(5R,7R)-7-fluoro-5-phenyl-6,7-dihydro-5H-pyrrolo [1,2-b][1,2,4]triazol-2-yl]methanone], the Ki amounted to 31 nM.

The compound `CN(C)C(=O)c1nc2n(n1)[C@@H](c1ccccc1)C[C@H]2F` (racemic) [Example 105, rac-(5R,7R)-7-fluoro-N,N-dimethyl-5-phenyl-6,7-dihydro-5H-pyrrolo[1,2-b][1,2,4]triazole-2-carboxamide] came in with a Ki of 56 nM.

`O=C(c1nc2n(n1)[C@@H](c1ccccc1)CC2(F)F)N1CC(F)(F)C1` (single isomer, unassigned) [Example 1a] yielded a Ki of 8 nM.

As for `O=C(c1nc2n(n1)[C@@H](c1ccccc1)CC2(F)F)N1CC(F)(F)C1` (single isomer, unassigned) [Example 1b], the Ki was above 10000 nM.

Regarding `CC[C@@]1(C)OCc2cnc(C(=O)N3CC(F)(F)C3)cc21` (single isomer, unassigned) [Example 7], the Ki stood at 1980 nM.

`O=C(c1nc2n(n1)[C@H](c1ccccc1F)CC2)N1CC(F)(F)C1` (single isomer, unassigned) [Example 10] showed a Ki above 10000 nM.

Regarding `O=C(c1nc2n(n1)[C@@H](c1ccccc1F)CC2)N1CC(F)(F)C1` (single isomer, unassigned) [Example 11], the Ki is 9 nM.

The compound `O=C(c1nc2n(n1)[C@@H](c1ccccc1F)CC2)N1CCC1` (single isomer, unassigned) [Example 12] returned a Ki of 137 nM.

Take `O=C(c1nc2n(n1)CC[C@H]2c1ccccc1)N1CC(F)(F)C1` (single isomer, unassigned) [Example 15]: the Ki was determined as 66 nM.

Consider `CC1(F)CN(C(=O)c2nc3n(n2)[C@@H](c2ccccc2)CC3(F)F)C1` (single isomer, unassigned) [Example 38], for which the Ki is 48 nM.

Consider `O=C(c1nc2n(n1)[C@@H](c1ccccc1)CC2(F)F)N1CC(F)C1` (single isomer, unassigned) [Example 48], for which the Ki was 71 nM.

For `O=C(c1nc2n(n1)[C@H](c1ccccc1)C[C@@H]2F)N1CC[C@H]1C(F)F` (single isomer, unassigned) [Example 52], the Ki came to 5 nM.

As for `O=C(c1nc2n(n1)[C@@H](c1ccccc1)C[C@H]2F)N1CCC[C@@H]1C(F)F` (single isomer, unassigned) [Example 65], the Ki was 36 nM.

On to `C[C@H]1[C@@H](C(F)(F)F)CCN1C(=O)c1nc2n(n1)[C@H](c1ccccc1)C[C@@H]2F` (single isomer, unassigned) [Example 86], for which the Ki amounted to 5 nM.

As for `O=C(c1nc2n(n1)[C@H](c1ccccc1)CC2)N1CC(F)(F)C1` (stereo in doubt) [Example 31, (3,3-difluoroazetidin-1-yl)-[rac-(5S)-5-phenyl-6,7-dihydro-5H-pyrrolo[1,2-b][1,2,4]triazol-2-yl]methanone], the Ki is 7100 nM.

In turn, `O=C(c1nc2n(n1)[C@@H](c1ccccc1)CC2)N1CC(F)(F)C1` (stereo in doubt) [Example 32, (3,3-difluoroazetidin-1-yl)-[rac-(5R)-5-phenyl-6,7-dihydro-5H-pyrrolo[1,2-b][1,2,4]triazol-2-yl]methanone] registered a Ki of 66 nM.

For the compound `O=C(c1nc2n(n1)[C@@H](c1ccccc1)C[C@H]2F)N1CCC(F)(F)C1` (stereo in doubt) [Example 54, (3,3-difluoropyrrolidin-1-yl)-[rac-(5R,7R)-7-fluoro-5-phenyl-6,7-dihydro-5H-pyrrolo [1,2-b][1,2,4]triazol-2-yl]methanone], the Ki stood at 11 nM.

`O=C(c1nc2n(n1)[C@@H](c1ccccc1)C[C@H]2F)N1CCn2nccc2C1` (stereo in doubt) [Example 66, 6,7-dihydro-4H-pyrazolo[1,5-a]pyrazin-5-yl-[rac-(5R,7R)-7-fluoro-5-phenyl-6,7-dihydro-5H-pyrrolo[1,2-b][1,2,4]triazol-2-yl]methanone] came in with a Ki of 15 nM.

Take `O=C(c1nc2n(n1)[C@@H](c1ccccc1)C[C@H]2F)N1CCc2cccnc2C1` (stereo in doubt) [Example 67, 6,8-dihydro-5H-1,7-naphthyridin-7-yl-[rac-(5R,7R)-7-fluoro-5-phenyl-6,7-dihydro-5H-pyrollo[1,2-b][1,2,4]triazol-2-yl]methanone]: the Ki was 5 nM.

With `O=C(c1nc2n(n1)[C@H](c1ccccc1)C[C@@H]2F)N1CCn2nccc2C1` (stereo in doubt) [Example 69, 6,7-dihydro-4H-pyrazolo[1,5-a]pyrazin-5-yl-[rac-(5S,7S)-7-fluoro-5-phenyl-6,7-dihydro-5H-pyrrolo[1,2-b][1,2,4]triazol-2-yl]methanone], the Ki worked out at 52 nM.

As to `O=C(c1nc2n(n1)[C@H](c1ccccc1)C[C@@H]2F)N1CCc2cccnc2C1` (stereo in doubt) [Example 74, 6,8-dihydro-5H-1,7-naphthyridin-7-yl-[rac-(5S, 7S)-7-fluoro-5-phenyl-6,7-dihydro-5H-pyrrolo [1,2-b][1,2,4]triazol-2-yl]methanone], the Ki was determined as 24 nM.

Take `O=C(c1nc2n(n1)[C@@H](c1ccccc1)C[C@H]2F)N1CCc2ccccc2C1` (stereo in doubt) [Example 76]: the Ki was found to be 31 nM.

For the compound `O=C(c1nc2n(n1)[C@H](c1ccccc1)C[C@@H]2F)N1CCC(F)(F)C1` (stereo in doubt) [Example 98, (3,3-difluoropyrrolidin-1-yl)-[rac-(5S,7S)-7-fluoro-5-phenyl-6,7-dihydro-5H-pyrrolo [1,2-b][1,2,4]triazol-2-yl]methanone], the Ki amounted to 36 nM.

Compound `O=C(c1nc2n(n1)[C@H](c1ccccc1)C[C@@H]2F)N1CCc2ccccc2C1` (stereo in doubt) [Example 99, 3,4-dihydro-1H-isoquinolin-2-yl-[rac-(5S,7S)-7-fluoro-5-phenyl-6,7-dihydro-5H-pyrrolo[1,2-b][1,2,4]triazol-2-yl]methanone] registered a Ki of 13 nM.

Turning to `O=C(c1nc2n(n1)[C@H](c1ccccc1)C[C@@H]2F)N1CC(F)(F)C1` [Example 3, (3,3-difluoroazetidin-1-yl)-[(5S,7S)-7-fluoro-5-phenyl-6,7-dihydro-5H-pyrrolo[1,2-b][1,2,4]triazol-2-yl]methanone], the Ki is 9 nM.

Take `O=C(c1cc2n(n1)CC[C@@H]2c1ccccc1)N1CC(F)(F)C1` [Example 9, (3,3-difluoroazetidin-1-yl)-[(4R)-4-phenyl-5,6-dihydro-4H-pyrrolo[1,2-b]pyrazol-2-yl]methanone]: the Ki was 2660 nM.
